Data on 27 molecules can be found in US20170232043A1, “BACTERIA ENGINEERED TO TREAT DISORDERS INVOLVING THE CATABOLISM OF A BRANCHED CHAIN AMINO ACID” (priority 2015, published 2017).

Series [1] has as its system ATC-inducible Ptet-GFP reporter construct. The experiment in a line: ATC-inducible Ptet-GFP reporter construct, fluorescence in plate reader (Example 28). Type of series: cell-based, E. coli Nissle. The settings on record: two-fold decreased inducer, across a range of concentrations.
Series [2] deals with LAD: L-amino acid deaminase of P. vulgaris. As to conditions: relative within the enzyme; cited from earlier work.
For series [3], the system named is Pm1: amino acid deaminase gene from P. mirabilis KCTC 2566. As to conditions: relative within the enzyme; cited from earlier work.
Series [4] relates to Pma: amino acid deaminase gene from P. mirabilis. As to conditions: relative within the enzyme; cited from earlier work.
The subject of a further series is rat. As to conditions: cited from earlier work.
Another series addresses LivK (Escherichia coli, UniProt P04816). The settings on record: cited from earlier work.
In series [5] the test system is nitric oxide inducible PnsrR-GFP reporter construct. Nature of the series: Nitric oxide inducible PnsrR-GFP reporter construct, fluorescence in plate reader (Example 28). As to conditions: DETA-NO as NO donor, two-fold decreased inducer, across a range of concentrations. The series is classed as cell-based, E. coli Nissle.
A further series concerns leucine. Nature of the series: in vitro leucine degradation assay (leucine in culture medium by LC-MS/MS). The series is classed as cell-based, E. coli Nissle.

Sequence of LivK (P04816 24-369): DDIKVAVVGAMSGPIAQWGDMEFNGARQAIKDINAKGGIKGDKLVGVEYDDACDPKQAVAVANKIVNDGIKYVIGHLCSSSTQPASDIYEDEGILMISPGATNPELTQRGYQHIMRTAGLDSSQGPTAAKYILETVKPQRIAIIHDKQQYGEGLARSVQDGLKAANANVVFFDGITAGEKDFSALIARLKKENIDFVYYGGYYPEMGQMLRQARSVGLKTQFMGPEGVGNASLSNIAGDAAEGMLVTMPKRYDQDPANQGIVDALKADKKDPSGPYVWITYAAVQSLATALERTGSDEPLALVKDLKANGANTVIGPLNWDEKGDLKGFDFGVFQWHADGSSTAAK

On to `Cc1c2c(c(O)c3c(O)cccc13)C(=O)[C@]1(O)C(=O)C(C(N)=O)=C(O)[C@@H](N(C)C)[C@@H]1C2` [ATC, anhydrotetracycline], for which the “expression of GFP (relative florescence units)” value in series [1] was “able to induce the expression of GFP”.

Turning to `C[C@H](N)C(=O)O` [Ala], the “amino acid deaminase activity of LAD, percentage” value in series [2] is given as 3.5%. In addition, in series [3], the “amino acid deaminase activity of Pm1, percentage” value was 9%. In addition, the “amino acid deaminase activity of Pma, percentage” value in series [4] is given as 0.6%.

`N=C(N)NCCC[C@H](N)C(=O)O` [Arg]: the “amino acid deaminase activity of LAD, percentage” value in series [2] is 27.3%. Moreover, the “amino acid deaminase activity of Pm1, percentage” value in series [3] is listed as 51.2%. In addition, in series [4], the “amino acid deaminase activity of Pma, percentage” value was 28.2%.

On to `NC(=O)C[C@H](N)C(=O)O` [Asn], for which the “amino acid deaminase activity of LAD, percentage” value in series [2] was 43.6%. The “amino acid deaminase activity of Pm1, percentage” value in series [3] is 5.2%. In addition, in series [4], the “amino acid deaminase activity of Pma, percentage” value is listed as 0%.

As to `N[C@@H](CC(=O)O)C(=O)O` [Asp], the “amino acid deaminase activity of LAD, percentage” value in series [2] is given as 55.4%. Besides, the “amino acid deaminase activity of Pm1, percentage” value in series [3] is 2.6%. For the same molecule, the “amino acid deaminase activity of Pma, percentage” value in series [4] is listed as 10.9%.

Regarding `N[C@@H](CS)C(=O)O` [Cys], the “amino acid deaminase activity of Pm1, percentage” value in series [3] is recorded as 9%. Besides, the “amino acid deaminase activity of Pma, percentage” value in series [4] is 1.9%.

As to `NC(=O)CC[C@H](N)C(=O)O` [Gln], in series [2], the “amino acid deaminase activity of LAD, percentage” value is 1.1%. Besides, in series [3], the “amino acid deaminase activity of Pm1, percentage” value is given as 5.2%. The “amino acid deaminase activity of Pma, percentage” value in series [4] is reported as 1.3%.

Regarding `N[C@@H](CCC(=O)O)C(=O)O` [Glu], the “amino acid deaminase activity of LAD, percentage” value in series [2] is 1.1%. Besides, in series [3], the “amino acid deaminase activity of Pm1, percentage” value is 35.8%. For the same molecule, in series [4], the “amino acid deaminase activity of Pma, percentage” value is reported as 0.6%.

On to `NCC(=O)O` [Gly], for which the “amino acid deaminase activity of Pm1, percentage” value in series [3] is on record as 7.6%. Moreover, the “amino acid deaminase activity of Pma, percentage” value in series [4] was 1.3%.

`N[C@@H](Cc1c[nH]cn1)C(=O)O` [His]: the “amino acid deaminase activity of LAD, percentage” value in series [2] is recorded as 79.9%. Besides, the “amino acid deaminase activity of Pm1, percentage” value in series [3] is 100%. In addition, the “amino acid deaminase activity of Pma, percentage” value in series [4] is on record as 0%.

`CC[C@H](C)[C@H](N)C(=O)O` [Ilu, isoleucine]: the “amino acid deaminase activity of Pm1, percentage” value in series [3] is given as 6.4%. Besides, the “amino acid deaminase activity of Pma, percentage” value in series [4] is on record as 2.6%.

`CC(C)CO` [Isobutanol]: in the series on rat (No-Observed-Adverse-Effect), the “Oral NOAEL* (rat)” value was over 1450 mg/kg/day.

As to `CC(C)CCO` [Isopentanol], the “Oral LD50 (rat)” value in the series with rat is on record as over 5000 mg/kg.

Turning to `CC(C)C[C@H](N)C(=O)O` [Leu, leucine], the “amino acid deaminase activity of LAD, percentage” value in series [2] is 105%. The “amino acid deaminase activity of Pm1, percentage” value in series [3] was 7.6%. Further, on LivK, the Kd was about 1 µM. Further, the “amino acid deaminase activity of Pma, percentage” value in series [4] was 41.7%.

For `NCCCC[C@H](N)C(=O)O` [Lys], the “amino acid deaminase activity of LAD, percentage” value in series [2] is reported as 3.5%. Besides, the “amino acid deaminase activity of Pm1, percentage” value in series [3] is 7.6%. In addition, the “amino acid deaminase activity of Pma, percentage” value in series [4] is on record as 1.9%.

With `CSCC[C@H](N)C(=O)O` [Met], the “amino acid deaminase activity of LAD, percentage” value in series [2] is 100%. Also, the “amino acid deaminase activity of Pm1, percentage” value in series [3] is on record as 2.6%. Besides, in series [4], the “amino acid deaminase activity of Pma, percentage” value is on record as 16.7%.

Turning to `NCCN(CCN)[N+]([O-])=NO` [NO], the “expression of GFP (relative florescence units)” value in series [5] is recorded as “able to induce the expression of GFP”.

In the case of `N[C@@H](Cc1ccccc1)C(=O)O` [Phe], in series [2], the “amino acid deaminase activity of LAD, percentage” value is on record as 37.4%. In series [3], the “amino acid deaminase activity of Pm1, percentage” value is on record as 46.2%. Further, the “amino acid deaminase activity of Pma, percentage” value in series [4] is reported as 100%.

On to `O=C(O)[C@@H]1CCCN1` [Pro], for which the “amino acid deaminase activity of LAD, percentage” value in series [2] is listed as 0.7%. Besides, in series [3], the “amino acid deaminase activity of Pm1, percentage” value was 14.2%. In series [4], the “amino acid deaminase activity of Pma, percentage” value is 3.2%.

With `N[C@@H](CO)C(=O)O` [Ser], the “amino acid deaminase activity of Pm1, percentage” value in series [3] was 3.8%. The “amino acid deaminase activity of Pma, percentage” value in series [4] is 1.3%.

Regarding `C[C@@H](O)[C@H](N)C(=O)O` [Thr], in series [2], the “amino acid deaminase activity of LAD, percentage” value is 1.1%. In series [3], the “amino acid deaminase activity of Pm1, percentage” value is 12.8%. For the same molecule, the “amino acid deaminase activity of Pma, percentage” value in series [4] is reported as 0%.

As to `N[C@@H](Cc1c[nH]c2ccccc12)C(=O)O` [Trp], the “amino acid deaminase activity of LAD, percentage” value in series [2] is 41.6%. The “amino acid deaminase activity of Pm1, percentage” value in series [3] was 10.2%. Moreover, the “amino acid deaminase activity of Pma, percentage” value in series [4] is reported as 3.2%.

Turning to `N[C@@H](Cc1ccc(O)cc1)C(=O)O` [Tyr], the “amino acid deaminase activity of LAD, percentage” value in series [2] is 92.8%. The “amino acid deaminase activity of Pm1, percentage” value in series [3] was 9%. Moreover, the “amino acid deaminase activity of Pma, percentage” value in series [4] is given as 0.6%.

Take `CC(C)[C@H](N)C(=O)O` [Val, valine]: the “amino acid deaminase activity of Pm1, percentage” value in series [3] is reported as 6.4%. Further, the “amino acid deaminase activity of Pma, percentage” value in series [4] is reported as 1.3%.

B1: BrnQ: low affinity BCAA transporter (protein)
chain: MTHQLRSRDIIALGFMTFALFVGAGNIIFPPMVGLQAGEHVWTAAFGFLITAVGLPVLTVVALAKVGGGVDSLSTPIGKVAGVLLATVCYLAVGPLFATPRTATVSFEVGIAPLTGDSALPLFIYSLVYFAIVILVSLYPGKLLDTVGNFLAPLKIIALVILSVAAIIWPAGSISTATEAYQNAAFSNGFVNGYLTMDTLGAMVFGIVIVNAARSRGVTEARLLTRYTVWAGLMAGVGLTLLYLALFRLGSDSASLVDQSANGAAILHAYVQHTFGGGGSFLLAALIFIACLVTAVGLTCACAEFFAQYVPLSYRTLVFILGGFSMVVSNLGLSQLIQISVPVLTAIYPPCIALVVLSFTRSWWHNSSRVIAPPMFISLLFGILDGIKASAFSDILPSWAQRLPLAEQGLAWLMPTVVMVVLAIIWDRAAGRQVTSSAH
modifications: BCAA transporter BrnQ
For the molecule B1, in the series on leucine (LeuE and ilvC knockout strain with leuDH-kivD-padA on high copy plasmid, tet inducible brnQ on low copy plasmid), the “rate of leucine degradation with overexpression of BrnQ” value is recorded as “greatly improves the rate of leucine degradation”.

B2: LeuDH: leucine dehydrogenase from Pseudomonas aeruginosa, expressed in the engineered strain (protein)
chain: MFDMMDAARLEGLHLAQDPATGLKAIIAIHSTRLGPALGGCRYLPYPNDEAAIGDAIRLAQGMSYKAALAGLEQGGGKAVIIRPPHLDNRGALFEAFGRFIESLGGRYITAVDSGTSSADMDCIAQQTRHVTSTTQAGDPSPHTALGVFAGIRASAQARLGSDDLEGLRVAVQGLGHVGYALAEQLAAVGAELLVCDLDPGRVQLAVEQLGAHPLAPEALLSTPCDILAPCGLGGVLTSQSVSQLRCAAVAGAANNQLERPEVADELEARGILYAPDYVINSGGLIYVALKHRGADPHSITAHLARIPARLTEIYAHAQADHQSPARIADRLAERILYGPQ
modifications: Synthetic: leuDH codon-optimized nucleotide sequence
notes: leucine dehydrogenase from Pseudomonas aeruginosa, expressed in the engineered strain
Regarding B2, the “rate of leucine degradation” value in the series with leucine (background strain Nissle ΔleuE, lacZ:tet-livKHMGF) was “about 160 nmol/10^9 CFU/hour”.

B3: LAADPm: L-AAD derived from P. mirabilis (protein)
chain: MAISRRKFILGGTVVAVAAGAGVLTPMLTREGRFVPGTPRHGFVEGTGGPLPKQDDVVVIGAGILGIMTAINLAERGLSVTIVEKGNIAGEQSSRFYGQAISYKMPDETFLLHHLGKHRWREMNAKVGIDTTYRTQGRVEVPLDEEDLENVRKWIDAKSKDVGSDIPFRTKMIEGAELKQRLRGATTDWKIAGFEEDSGSFDPEVATFVMAEYAKKMGIKIFTNCAARGLETQAGVISDVVTEKGPIKTSRVVVAGGVGSRLFMQNLNVDVPTLPAYQSQQLISAAPNAPGGNVALPGGIFFRDQADGTYATSPRVIVAPVVKESFTYGYKYLPLLALPDFPVHISLNEQLINSFMQSTHWDLNEESPFEKYRDMTALPDLPELNASLEKLKKEFPAFKESTLIDQWSGAMAIAPDENPIISDVKEYPGLVINTATGWGMTESPVSAEITADLLLGKKPVLDAKPFSLYRF
modifications: Synthetic: L-AAD Nucleotide sequence
notes: L-AAD derived from P. mirabilis
Take B3: the “leucine degradation rate, comparison of adh2, yqhD, padA and of LAADPv, LAADPm” value in the series with leucine (SYN469 background, with L-AAD and kivD) is listed as “good alternative to LAADPV”.

In general, Kd refers to the equilibrium constant for the complex coming apart.
